We go through two compounds from patent publication US20060004195A1, “Alpha,beta-unsaturated esters and acids by stereoselective dehydration” (priority 2004, published 2006).

What is called melting point is the temperature of the solid-liquid transition.

Compound `COc1ccc(-n2nc(C[C@H](C(=O)[O-])c3cccc(C)c3)cc2-c2ccc(Cl)c(Cl)c2)cc1.[Na+]` (stereo in doubt) came in with a melting point of 295.5 to 297.5 °C. The value for `O=C(O)/C(=C\c1cc(-c2ccc3c(c2)OCO3)n(-c2cc(Cl)ccc2Cl)n1)c1cccc(Cl)c1` [Example 606, (Z)-3-[5-Benzo[1,3]dioxol-5-yl-1-(2,5-dichloro-phenyl)-1H-pyrazol-3-yl]-2-(3-chloro-phenyl)-acrylic acid] was 174 °C.
